Measured values from PubChem BioAssay AID1963960 (Molecular Pharmacology Branch, DTP, NCI, 2024).

Test system: MDA-MB-468 spheroids with HUVEC/MSC, viability
Assay: Anticancer human tumor MDA-MB-468 cell line growth inhibition [PI3K];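 also: spheroids exposed to agents for seven days before readout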;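 as to viability, T/C: 100% = DMSO vehicle control viability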
Conditions: for IC50: curve of first compound; for viability, T/C: stronger effect = lower value
How it was run: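 Targeted small molecules plus PI3K inhibitors, half-log dose series from Cmax (default top 10 microM), were applied to heterotypic spheroids of cancer cells with HUVEC and MSCs. Viability indicated growth inhibition.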

[1] = second compound 0.00316 µM, first compound 0.0316 µM
[2] = second compound 0.00316 µM, first compound 0.1 µM
[3] = second compound 0.01 µM, first compound 0.0316 µM
[4] = second compound 0.01 µM, first compound 0.1 µM
[5] = second compound 0.0316 µM, first compound 0.0316 µM
[6] = second compound 0.0316 µM, first compound 0.1 µM
[7] = second compound 0.1 µM, first compound 0.0316 µM
[8] = second compound 0.1 µM, first compound 0.1 µM
[9] = second compound 0.316 µM, first compound 0.0316 µM
[10] = second compound 0.316 µM, first compound 0.1 µM
[11] = second compound 1 µM, first compound 0.0316 µM
[12] = second compound 1 µM, first compound 0.1 µM

SMILES: CC(=O)c1c(C)c2cnc(Nc3ccc(N4CCNCC4)cn3)nc2n(C2CCCC2)c1=O + COc1c(OCCCN2CCOCC2)ccc2c3n(c(=NC(=O)c4cnc(N)nc4)nc12)CCN3
- IC50 (second compound 0.00316 µM): > 100 nM
- IC50 (second compound 0.01 µM): > 100 nM
- IC50 (second compound 0.0316 µM): > 100 nM
- IC50 (second compound 0.1 µM): > 100 nM
- IC50 (second compound 0.316 µM): < 0.316 nM
- IC50 (second compound 1 µM): < 0.316 nM
- viability, T/C (second compound 0.00316 µM, first compound 0.000316 µM): 105%
- viability, T/C (second compound 0.00316 µM, first compound 0.001 µM): 92.6%
- viability, T/C (second compound 0.00316 µM, first compound 0.00316 µM): 92.5%
- viability, T/C (second compound 0.00316 µM, first compound 0.01 µM): 99.7%
- viability, T/C [1]: 90.1%
- viability, T/C [2]: 91.5%
- viability, T/C (second compound 0.01 µM, first compound 0.000316 µM): 85.7%
- viability, T/C (second compound 0.01 µM, first compound 0.001 µM): 84%
- viability, T/C (second compound 0.01 µM, first compound 0.00316 µM): 81.2%
- viability, T/C (second compound 0.01 µM, first compound 0.01 µM): 86.2%
- viability, T/C [3]: 86.8%
- viability, T/C [4]: 110%
- viability, T/C (second compound 0.0316 µM, first compound 0.000316 µM): 64.1%
- viability, T/C (second compound 0.0316 µM, first compound 0.001 µM): 67.5%
- viability, T/C (second compound 0.0316 µM, first compound 0.00316 µM): 72.2%
- viability, T/C (second compound 0.0316 µM, first compound 0.01 µM): 79.8%
- viability, T/C [5]: 83.2%
- viability, T/C [6]: 86.4%
- viability, T/C (second compound 0.1 µM, first compound 0.000316 µM): 59.5%
- viability, T/C (second compound 0.1 µM, first compound 0.001 µM): 62.8%
- viability, T/C (second compound 0.1 µM, first compound 0.00316 µM): 58.8%
- viability, T/C (second compound 0.1 µM, first compound 0.01 µM): 61.5%
- viability, T/C [7]: 64.1%
- viability, T/C [8]: 53.2%
- viability, T/C (second compound 0.316 µM, first compound 0.000316 µM): 26.6%
- viability, T/C (second compound 0.316 µM, first compound 0.001 µM): 25.5%
- viability, T/C (second compound 0.316 µM, first compound 0.00316 µM): 27.1%
- viability, T/C (second compound 0.316 µM, first compound 0.01 µM): 26.3%
- viability, T/C [9]: 27.1%
- viability, T/C [10]: 27.9%
- viability, T/C (second compound 1 µM, first compound 0.000316 µM): 3.5%
- viability, T/C (second compound 1 µM, first compound 0.001 µM): 3.63%
- viability, T/C (second compound 1 µM, first compound 0.00316 µM): 2.3%
- viability, T/C (second compound 1 µM, first compound 0.01 µM): 3.4%
- viability, T/C [11]: 2.94%
- viability, T/C [12]: 2.61%

SMILES: CNC(=O)c1ccc(N2C(=S)N(c3ccc(C#N)c(C(F)(F)F)c3)C(=O)C2(C)C)cc1F + COc1c(OCCCN2CCOCC2)ccc2c3n(c(=NC(=O)c4cnc(N)nc4)nc12)CCN3
- IC50 (second compound 0.00316 µM): > 10000 nM
- IC50 (second compound 0.01 µM): > 10000 nM
- IC50 (second compound 0.0316 µM): > 10000 nM
- IC50 (second compound 0.1 µM): > 10000 nM
- IC50 (second compound 0.316 µM): < 31.6 nM
- IC50 (second compound 1 µM): < 31.6 nM
- viability, T/C [1]: 85.4%
- viability, T/C [2]: 90.6%
- viability, T/C (second compound 0.00316 µM, first compound 0.316 µM): 88.5%
- viability, T/C (second compound 0.00316 µM, first compound 1 µM): 101%
- viability, T/C (second compound 0.00316 µM, first compound 3.16 µM): 77.4%
- viability, T/C (second compound 0.00316 µM, first compound 10 µM): 70.8%
- viability, T/C [3]: 81.9%
- viability, T/C [4]: 89.8%
- viability, T/C (second compound 0.01 µM, first compound 0.316 µM): 87.8%
- viability, T/C (second compound 0.01 µM, first compound 1 µM): 86.2%
- viability, T/C (second compound 0.01 µM, first compound 3.16 µM): 79.7%
- viability, T/C (second compound 0.01 µM, first compound 10 µM): 75.6%
- viability, T/C [5]: 82.4%
- viability, T/C [6]: 80.7%
- viability, T/C (second compound 0.0316 µM, first compound 0.316 µM): 82.8%
- viability, T/C (second compound 0.0316 µM, first compound 1 µM): 80.2%
- viability, T/C (second compound 0.0316 µM, first compound 3.16 µM): 82.5%
- viability, T/C (second compound 0.0316 µM, first compound 10 µM): 60.7%
- viability, T/C [7]: 52.7%
- viability, T/C [8]: 54.2%
- viability, T/C (second compound 0.1 µM, first compound 0.316 µM): 59.5%
- viability, T/C (second compound 0.1 µM, first compound 1 µM): 57%
- viability, T/C (second compound 0.1 µM, first compound 3.16 µM): 59.9%
- viability, T/C (second compound 0.1 µM, first compound 10 µM): 49.2%
- viability, T/C [9]: 26.4%
- viability, T/C [10]: 27.4%
- viability, T/C (second compound 0.316 µM, first compound 0.316 µM): 29.3%
- viability, T/C (second compound 0.316 µM, first compound 1 µM): 30.1%
- viability, T/C (second compound 0.316 µM, first compound 3.16 µM): 29.6%
- viability, T/C (second compound 0.316 µM, first compound 10 µM): 20.8%
- viability, T/C [11]: 4.39%
- viability, T/C [12]: 4.39%
- viability, T/C (second compound 1 µM, first compound 0.316 µM): 4.07%
- viability, T/C (second compound 1 µM, first compound 1 µM): 4.23%
- viability, T/C (second compound 1 µM, first compound 3.16 µM): 4.41%
- viability, T/C (second compound 1 µM, first compound 10 µM): 2.21%

SMILES: Cn1cnc2c(F)c(Nc3ccc(Br)cc3Cl)c(C(=O)NOCCO)cc21 + COc1c(OCCCN2CCOCC2)ccc2c3n(c(=NC(=O)c4cnc(N)nc4)nc12)CCN3
- IC50 (second compound 0.00316 µM): > 3000 nM
- IC50 (second compound 0.01 µM): > 3000 nM
- IC50 (second compound 0.0316 µM): 1080 nM
- IC50 (second compound 0.1 µM): 114 nM
- IC50 (second compound 0.316 µM): < 9.49 nM
- IC50 (second compound 1 µM): < 9.49 nM
- viability, T/C (second compound 0.00316 µM, first compound 0.00949 µM): 80.8%
- viability, T/C (second compound 0.00316 µM, first compound 0.03 µM): 88.8%
- viability, T/C (second compound 0.00316 µM, first compound 0.0949 µM): 84.4%
- viability, T/C (second compound 0.00316 µM, first compound 0.3 µM): 78.3%
- viability, T/C (second compound 0.00316 µM, first compound 0.949 µM): 62.5%
- viability, T/C (second compound 0.00316 µM, first compound 3 µM): 55.8%
- viability, T/C (second compound 0.01 µM, first compound 0.00949 µM): 74.8%
- viability, T/C (second compound 0.01 µM, first compound 0.03 µM): 76.6%
- viability, T/C (second compound 0.01 µM, first compound 0.0949 µM): 81.1%
- viability, T/C (second compound 0.01 µM, first compound 0.3 µM): 64.9%
- viability, T/C (second compound 0.01 µM, first compound 0.949 µM): 60.6%
- viability, T/C (second compound 0.01 µM, first compound 3 µM): 49.3%
- viability, T/C (second compound 0.0316 µM, first compound 0.00949 µM): 68%
- viability, T/C (second compound 0.0316 µM, first compound 0.03 µM): 69.7%
- viability, T/C (second compound 0.0316 µM, first compound 0.0949 µM): 64.2%
- viability, T/C (second compound 0.0316 µM, first compound 0.3 µM): 57.3%
- viability, T/C (second compound 0.0316 µM, first compound 0.949 µM): 53.8%
- viability, T/C (second compound 0.0316 µM, first compound 3 µM): 37.3%
- viability, T/C (second compound 0.1 µM, first compound 0.00949 µM): 55.2%
- viability, T/C (second compound 0.1 µM, first compound 0.03 µM): 47.9%
- viability, T/C (second compound 0.1 µM, first compound 0.0949 µM): 51.2%
- viability, T/C (second compound 0.1 µM, first compound 0.3 µM): 46.4%
- viability, T/C (second compound 0.1 µM, first compound 0.949 µM): 32.1%
- viability, T/C (second compound 0.1 µM, first compound 3 µM): 15.6%
- viability, T/C (second compound 0.316 µM, first compound 0.00949 µM): 26.5%
- viability, T/C (second compound 0.316 µM, first compound 0.03 µM): 23.4%
- viability, T/C (second compound 0.316 µM, first compound 0.0949 µM): 18.5%
- viability, T/C (second compound 0.316 µM, first compound 0.3 µM): 16.4%
- viability, T/C (second compound 0.316 µM, first compound 0.949 µM): 11.8%
- viability, T/C (second compound 0.316 µM, first compound 3 µM): 4.57%
- viability, T/C (second compound 1 µM, first compound 0.00949 µM): 2.75%
- viability, T/C (second compound 1 µM, first compound 0.03 µM): 2.53%
- viability, T/C (second compound 1 µM, first compound 0.0949 µM): 1.74%
- viability, T/C (second compound 1 µM, first compound 0.3 µM): 1.38%
- viability, T/C (second compound 1 µM, first compound 0.949 µM): 1.4%
- viability, T/C (second compound 1 µM, first compound 3 µM): 0.51%
